Read-outs that look alike come from different tables or passages of the source.
Key:
[1] = Stability constant (log βML) of ligand-metal complexes; assay type: binding
From the text: Thus far, no stability constant has been published for the actinium (Ac^3+) complex of 3,4,3-LI(1,2-HOPO). Based on the ionic radius of Ac^3+ (1.22 Å; See, D. Lundberg, I. Persson, The size of actinoid(III) ions—structural analysis vs. common misinterpretations, Coord. Chem. Rev. 318 (2016) 131-134. doi:10.1016/j.ccr.2016.04.003) and stability constants determined for other actinide and lanthanide ions, the stability of the Ac^3+ complex is expected to be very low, with a log β[AcL]- value of about 12 (FIG. 22). Stability of constant of 3,4,3-LI(1,2-HOPO) complexes with trivalent ions as a function of the ionic radius of the metal is shown in FIG. 22. […] Ionic radius values taken from Lundberg et al. for nona-coordinated metal ions. The Ac^3+ data point is an estimate. See, Lundberg, I. Persson, The size of actinoid(III) ions—structural analysis vs. common misinterpretations, Coord. Chem. Rev. 318 (2016) 131-134. doi:10.1016/j.ccr.2016.04.003; D. Lundberg, I. Persson, L. Eriksson, P. D'Angelo, S. De Panfilis, Structural Study of the N,N′-Dimethylpropyleneurea Solvated Lanthanoid(III) Ions in Solution and Solid State with an Analysis of the Ionic Radii of Lanthanoid(III) Ions, Inorg. Chem. 49 (2010) 4420-4432. doi:10.1021/ic100034q.

[2] = Extraction by HDEHP at constant pH with 3,4,3-LI(1,2-HOPO) as hold-back reagent; conditions: 1 mM ligand, 0.1 M HNO3/1.9 M NaNO3; for % Extraction: extraction of ^243Americium(III)
Method: (§1) In FIG. 26, aqueous phase: [ligand]=1 mM, buffer 0.1 M HNO3/1.9 M NaNO3. Organic phase: HDEHP diluted in kerosene. [HDEHP]=0.05, 0.10, 0.25, 0.50, 1.0, or 2.0 M. T=25° C. Volume organic phase/Volume aqueous phase=1. Initial metal concentrations: [Pu-242]=10 μM, [Am-243]=0.25 μM, or [Gd-153]=0.16 nM. Phases analyzed after one contact. Contact time: 30 min.
The separation factor values given here must been seen as lower limit since the extraction of Pu(IV) is near zero.
as §1, with “28,” for “26,”, “concentrations:” for “concentrations: [Pu-242]=10 μM,”, “min. Corresponding separation factors (SF) are given on the right Y-axis. SF Gd/Am=Ratio [Gd]/[Am] in the final organic phase/Ratio [Gd]/[Am] in the initial aqueous solution.” for “min.”

[3] = Gd^3+; 25° C.; cited from earlier work
[4] = Persistence of the metal complex versus acidity; assay type: binding; conditions: Sn^4+
[5] = Cd^2+; 25° C.; cited from earlier work
[6] = Th^4+; 25° C.; cited from earlier work
[7] = UO2^2+; 25° C.; cited from earlier work
[8] = Extraction by TODGA from HNO3 in the absence or presence of 1 mM 343HOPO
Method: Organic phase: 0.1 M TODGA in kerosene. Aqueous solvent: HNO3. T=25° C. O/A=1, one contact. Points with arrows are lower limits.
For Example 20—Example 24, pH measurements were performed with a glass electrode (Metrohm-Micro Combi-response to [H+]) calibrated at 25.0° C. using three NIST standards. Extraction samples were analyzed by liquid scintillation counting (LSC). The distribution coefficient, D(M), of a given metal, M, is defined in Eq. 1, where [M]organic and [M]aqueous are the respective total concentrations of M in the organic and aqueous layers, after extraction. Both concentrations are proportional to the volumetric activity (in Bq/L) determined by LSC. The separation factor, SFM1/M2, between two metals, M1 and M2, and extraction yield were calculated according to Eq. 2 and Eq. 3, respectively.
In a typical experiment, the solvent (extractant diluted in kerosene) was pre-conditioned by shaking one volume of solvent with three volumes of aqueous phase (typically HNO3) at room temperature for 1 h, thrice. For radioisotope extractions, at least 400 μL aqueous phase (typically containing HNO3, a chelator and a radioisotope) and solvent were placed in air-tight screw-capped plastic tubes, triply-contained, and shaken in a thermoshaker at 300 rpm, 25° C., for at least 30 min. Samples were then centrifuged for 5 min at 3000 rpm and phases separated before analysis. LSC analyses were performed on a Packard Tri-Carb B4430 instrument (Perkin Elmer) after mixing sample aliquots or sample dilution aliquots (10 to 200 μL) with 10 mL of scintillation cocktail (UltimaGold LLT). Samples were counted for at least 6 min and results were background subtracted. The analytical samples contained between 0 and 800,000 CPM. Mixtures of ^249Bk and ^249Cf were analyzed using α/β discrimination and energy windows were set to 0-50 keV for low-energy β particles of ^249Bk and 50-1000 keV for α particles of ^249Cf. ^243Am and ^225Ac samples were counted at secular equilibrium.

O=C(NCCCN(CCCCN(CCCNC(=O)c1cccc(=O)n1O)C(=O)c1cccc(=O)n1O)C(=O)c1cccc(=O)n1O)c1cccc(=O)n1O [3,4,3-LI(1,2-HOPO)]
log β[AcL]- ([1]; Ac^3+ complex, expected from ionic radius (1.22 Å) and constants of other ions): about 12
log βML ([1]; Ac^3+, estimate based on ionic radius): 10-14
SF Gd^3+/Am^3+ ([2]; HDEHP 0.05 M): 24.1
% Extraction ([2]; HDEHP 0.05 M): 0.21%
SF Gd^3+/Am^3+ ([2]; HDEHP 0.10 M): 23.3
% Extraction ([2]; HDEHP 0.10 M): 1.32%
SF Gd^3+/Am^3+ ([2]; HDEHP 0.25 M): 25.3
% Extraction ([2]; HDEHP 0.25 M): 10.08%
SF Gd^3+/Am^3+ ([2]; HDEHP 0.50 M): 27.0
% Extraction ([2]; HDEHP 0.50 M): 30.27%
SF Gd^3+/Am^3+ ([2]; HDEHP 1.00 M): 45.6
% Extraction ([2]; HDEHP 1.00 M): 49.98%
SF Gd^3+/Am^3+ ([2]; HDEHP 2.00 M): 99.8
% Extraction ([2]; HDEHP 2.00 M): 57.29%
log βML [3]: 20.5 ± 0.1
acidity range over which the ligand stays bound [4]: from pH 8 to 1 M HCl
log βML [5]: 16.1 ± 0.3
log βML [6]: 40.1 ± 0.5
log βML [7]: 18.0 ± 0.4
SFU/Pu ([8]; 1 mM 343HOPO, 0.1 M TODGA in kerosene): around 50,000
SF values between the trivalent ions and Pu^4+ ([8]; 1 mM 343HOPO, 0.1 M TODGA in kerosene, LoD reached): above 450,000,000
separation factor for redox-free Pu purification against uranyl ions and trivalent actinides or fission products ([8]; summary statement): over 10^8
